Source: US11505782B2 (priority 2018, dated 2022)
Values joined by “and” are separate entries in the source; they are usually repeats but may differ in a detail not shown here. Equal entries are not always repeated. Where two headings read alike, the source gives them in different places.

Columns and labels:
[1] = target: T1, complement C3 (Homo sapiens, UniProt P01024); format: cell-based; settings: 72 h
[2] = target: T1, complement C3; format: cell-based; settings: 48 h
[3] = system: PC3 human prostate cancer cells; format: cell-based
[4] = system: JAK1/JAK2; format: cell-based, human
[5] = system: PC3 human prostate cancer cells; format: cell-based; remark: listed apart in the source

T1 sequence (P01024 672-1663): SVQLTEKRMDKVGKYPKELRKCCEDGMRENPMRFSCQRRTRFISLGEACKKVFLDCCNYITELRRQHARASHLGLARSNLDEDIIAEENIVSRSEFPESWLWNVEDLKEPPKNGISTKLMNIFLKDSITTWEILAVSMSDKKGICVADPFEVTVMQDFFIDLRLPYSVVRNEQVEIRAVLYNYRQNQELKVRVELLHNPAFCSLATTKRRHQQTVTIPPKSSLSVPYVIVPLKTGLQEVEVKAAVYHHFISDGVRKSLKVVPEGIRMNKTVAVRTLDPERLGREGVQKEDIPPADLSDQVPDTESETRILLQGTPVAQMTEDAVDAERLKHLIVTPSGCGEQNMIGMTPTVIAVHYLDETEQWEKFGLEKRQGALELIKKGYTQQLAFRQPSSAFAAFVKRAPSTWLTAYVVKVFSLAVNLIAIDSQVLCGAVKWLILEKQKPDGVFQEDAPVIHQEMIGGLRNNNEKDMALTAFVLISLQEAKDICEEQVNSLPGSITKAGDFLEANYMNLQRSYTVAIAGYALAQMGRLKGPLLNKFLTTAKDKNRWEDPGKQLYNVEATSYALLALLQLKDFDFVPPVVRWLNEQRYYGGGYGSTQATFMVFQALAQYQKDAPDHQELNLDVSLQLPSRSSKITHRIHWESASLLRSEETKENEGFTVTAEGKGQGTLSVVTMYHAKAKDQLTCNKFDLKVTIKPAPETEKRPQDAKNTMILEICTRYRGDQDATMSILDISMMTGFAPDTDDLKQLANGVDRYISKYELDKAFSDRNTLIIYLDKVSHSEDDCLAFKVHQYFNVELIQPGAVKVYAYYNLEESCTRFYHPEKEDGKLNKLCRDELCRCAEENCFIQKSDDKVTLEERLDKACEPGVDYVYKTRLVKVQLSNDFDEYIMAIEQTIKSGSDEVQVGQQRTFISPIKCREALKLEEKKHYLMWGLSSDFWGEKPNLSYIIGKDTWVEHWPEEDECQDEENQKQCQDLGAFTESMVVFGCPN
T1 sequence (P01024 23-667): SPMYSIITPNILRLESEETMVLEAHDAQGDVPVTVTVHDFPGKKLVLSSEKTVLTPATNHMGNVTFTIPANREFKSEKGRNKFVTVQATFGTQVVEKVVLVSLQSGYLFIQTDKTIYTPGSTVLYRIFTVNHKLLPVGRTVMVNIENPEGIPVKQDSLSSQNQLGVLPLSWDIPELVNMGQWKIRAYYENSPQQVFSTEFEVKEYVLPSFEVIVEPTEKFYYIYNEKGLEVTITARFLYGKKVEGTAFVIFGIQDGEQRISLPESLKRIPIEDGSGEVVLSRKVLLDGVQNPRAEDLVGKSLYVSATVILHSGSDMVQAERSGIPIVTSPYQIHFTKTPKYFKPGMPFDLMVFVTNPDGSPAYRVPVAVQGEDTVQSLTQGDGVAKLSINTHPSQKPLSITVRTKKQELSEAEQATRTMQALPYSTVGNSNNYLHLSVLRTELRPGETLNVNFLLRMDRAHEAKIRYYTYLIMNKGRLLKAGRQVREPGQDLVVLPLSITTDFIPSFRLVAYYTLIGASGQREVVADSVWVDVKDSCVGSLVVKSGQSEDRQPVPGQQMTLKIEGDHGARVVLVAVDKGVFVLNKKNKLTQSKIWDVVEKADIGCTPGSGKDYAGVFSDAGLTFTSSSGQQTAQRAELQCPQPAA

SMILES	% Increase in Fluorescence [1] [%]	Average Fluorescence Intensity Density [1]	increase of fluorescent signal compared to control cells [1] [%]	Average Fluorescence Intensity Density [2]	increase of fluorescence intensity vs serum only control [2] [%]	increase of fluorescence intensity (partial reversal of complement-mediated suppression of virus spreading) [3] [%]	Average Fluorescence Intensity Density ([3]; 48 h)	Average Fluorescence Intensity Density [4]	Average Fluorescence Intensity Density [5]
CC[C@H](C)[C@H](N)C(=O)N[C@H]1CSSC[C@@H](C(=O)N[C@H](C(N)=O)[C@@H](C)O)NC(=O)[C@H](CCCN=C(N)N)NC(=O)[C@H](Cc2cnc[nH]2)NC(=O)[C@H](Cc2cnc[nH]2)NC(=O)CNC(=O)[C@H](Cc2c[nH]c3ccccc23)NC(=O)[C@H](CC(=O)O)NC(=O)[C@H](CCC(N)=O)NC(=O)[C@H](C(C)C)NC(=O)[C@H](C(C)C)NC1=O [compstatin]	50	0.09	50	0.0945 and 0.0670 and 0.0920	27.7	28.5	36.4	–	–
N#CC[C@H](C1CCCC1)n1cc(-c2ncnc3[nH]ccc23)cn1 [Ruxolitinib]	–	–	–	–	–	–	–	0.074 and 0.0755 and 0.0735	3.8 and 6.0
